The source of these data is publication PMC6080388 (Journal of Enzyme Inhibition and Medicinal Chemistry, 2017).

Values joined by “and” are separate entries in the source; they are usually repeats but may differ in a detail not shown here. Identical values can stand only once. Like-named read-outs stand apart in the source and are kept apart here.

Usually IC50 stands for the point on the concentration scale where inhibition reaches its midpoint. By viability is commonly meant a per cent measure of how many cells are alive, often set against a control.

The target in data set [1] is T1, BuChE (EC 3.1.1.8, from equin serum) (Equus caballus, UniProt P81908).
T1 construct: BuChE (EC 3.1.1.8, from equin serum); purchased Sigma Aldrich (Steinheim, Germany); host or cells: equine serum
T1 sequence (P81908 whole entry): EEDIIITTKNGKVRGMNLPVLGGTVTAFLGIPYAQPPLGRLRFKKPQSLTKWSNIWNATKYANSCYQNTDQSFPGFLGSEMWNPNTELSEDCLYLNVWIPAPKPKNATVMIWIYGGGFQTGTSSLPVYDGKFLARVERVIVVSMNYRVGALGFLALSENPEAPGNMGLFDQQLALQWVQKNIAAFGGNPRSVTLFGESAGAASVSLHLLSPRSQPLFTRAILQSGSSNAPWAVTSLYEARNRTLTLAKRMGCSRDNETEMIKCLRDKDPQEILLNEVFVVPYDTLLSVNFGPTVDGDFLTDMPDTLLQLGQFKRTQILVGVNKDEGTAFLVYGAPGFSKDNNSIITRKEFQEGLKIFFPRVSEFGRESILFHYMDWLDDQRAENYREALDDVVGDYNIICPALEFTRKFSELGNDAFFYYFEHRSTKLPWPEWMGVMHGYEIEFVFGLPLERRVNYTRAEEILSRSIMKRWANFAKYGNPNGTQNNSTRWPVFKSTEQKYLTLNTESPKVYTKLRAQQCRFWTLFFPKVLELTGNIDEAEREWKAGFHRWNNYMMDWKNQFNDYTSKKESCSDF
Description: biochemical. It counts as biochemical. Particulars: for IC50: means ± SEM of three independent experiments, equine serum BuChE; for BuChE inhibitory activity, fold higher than donepezil: in comparison to donepezil.
Description: (§2) The inhibitory activities of the tested compounds towards AChE and BuChE were performed using Ellman’s method[25]. All reagents including AChE (EC 3.1.1.7, from Electrophorus electricus), BuChE (EC 3.1.1.8, from equin serum), DTNB (Ellman’s reagent), and acetylthiocholine iodide (ATC iodide) were purchased from Sigma Aldrich (Steinheim, Germany). Analysis was executed in following procedure: AChE and BuChE solution was made by dissolving enzymes in phosphate buffer (pH 7.4) to obtain 2 and 4 U/ml, respectively. […] The study was performed in triplicate and recorded in 96-well microplates, using multifunctional microplate reader. The assay medium contained DTNB solution 0.4 mg/ml (76 µl), AChE (10 µl), various concentration of the examined compounds (14 µl) and ATC iodine solution (40 µl) at the concentration of 1 mM. For the reference value, 14 µl of the test compound solutions were replaced by phosphate buffer (pH 7.4). […] Inhibition activity was expressed as a percentage of the activity of the tested compound relative to the reference control.

The target in data set [2] is T2, AChE (EC 3.1.1.7, from Electrophorus electricus) (Electrophorus electricus, UniProt O42275).
T2 construct: purchased Sigma Aldrich (Steinheim, Germany)
T2 sequence (O42275 24-633): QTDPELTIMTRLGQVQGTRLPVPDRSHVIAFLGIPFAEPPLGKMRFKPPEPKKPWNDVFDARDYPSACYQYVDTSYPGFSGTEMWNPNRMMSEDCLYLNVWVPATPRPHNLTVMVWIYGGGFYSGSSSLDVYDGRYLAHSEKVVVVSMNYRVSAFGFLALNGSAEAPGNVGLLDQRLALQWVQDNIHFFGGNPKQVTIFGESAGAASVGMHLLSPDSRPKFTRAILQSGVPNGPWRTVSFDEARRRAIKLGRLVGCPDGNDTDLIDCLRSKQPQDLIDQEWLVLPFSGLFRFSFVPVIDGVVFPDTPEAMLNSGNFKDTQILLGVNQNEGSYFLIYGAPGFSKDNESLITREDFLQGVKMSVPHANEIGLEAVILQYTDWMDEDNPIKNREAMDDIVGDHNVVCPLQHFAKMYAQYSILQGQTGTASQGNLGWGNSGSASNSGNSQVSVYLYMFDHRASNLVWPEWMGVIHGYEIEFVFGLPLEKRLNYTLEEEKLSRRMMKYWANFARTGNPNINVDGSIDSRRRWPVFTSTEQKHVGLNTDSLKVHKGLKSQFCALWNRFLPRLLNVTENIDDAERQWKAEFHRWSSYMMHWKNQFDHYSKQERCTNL
Description: biochemical. Particulars: for Selectivity for AChE: IC50(BuChE)/IC50(AChE). Type of data set: biochemical.
Description: as §2

The target in data set [3] is T3, hyaluronidase from bovine testes Type I-S (Bos taurus, UniProt Q2YDK3).
T3 sequence (Q2YDK3 36-553): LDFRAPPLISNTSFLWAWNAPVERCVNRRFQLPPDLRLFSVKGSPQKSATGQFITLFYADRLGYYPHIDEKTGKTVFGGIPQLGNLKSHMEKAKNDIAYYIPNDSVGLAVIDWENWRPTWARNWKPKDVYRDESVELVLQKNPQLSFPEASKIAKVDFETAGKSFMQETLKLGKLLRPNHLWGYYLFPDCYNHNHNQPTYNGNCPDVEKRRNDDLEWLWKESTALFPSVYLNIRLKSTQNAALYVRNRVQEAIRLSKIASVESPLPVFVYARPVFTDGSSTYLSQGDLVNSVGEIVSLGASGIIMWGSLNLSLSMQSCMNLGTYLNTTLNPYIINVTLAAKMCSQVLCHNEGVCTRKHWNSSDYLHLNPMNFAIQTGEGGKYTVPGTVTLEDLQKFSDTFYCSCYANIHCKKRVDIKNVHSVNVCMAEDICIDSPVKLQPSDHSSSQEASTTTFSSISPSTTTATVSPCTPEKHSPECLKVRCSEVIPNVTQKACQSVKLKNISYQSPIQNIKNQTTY
Description: Hyaluronidase inhibition test (turbidimetric). Type of data set: biochemical. Conditions: means ± standard deviation; read-out: HYAL IC50 ± SD. As for the experimental part:
The inhibition study of hyaluronidase was carried out by turbidimetric method adapted to the 96-well plates and described previously by Michel et al[32] ^, [33]. […] Mixture was incubated in the dark at 37 °C for 10 min. Then, 40 µl of hyaluronic acid solution (0.03%, Sigma Aldrich, Steinheim, Germany) in monosodium phosphate buffer (pH 5.35) was added to the wells and the plate was incubated in the dark at 37 °C for 45 min. At the end, 300 µl of bovine serum albumin solution (0.1%, Serva) in sodium acetate buffer (pH 3.75) was added to the wells and incubated in the room temperature for 10 min. The changes in turbidity were measured at 600 nm by a microplate reader (BioTek, Winooski, VT). The assay was run out in three experiments in triplicate to calculate IC50 values. Heparin (WZF, Polfa) was used as a positive control.
The inhibition of hyaluronidase by the tested compound was calculated following the equation: % inhibition=100x1-AHA-AAN/AHA-AHYAL where AHA − absorbance of solution without the enzyme (positive control),
AHYAL − absorbance of solution without the tested compound (negative control), AAN − absorbance of solution with the tested compound.

For the next data set, the target named is T4, Aβ1–42 (Homo sapiens, UniProt P05067).
T4 construct: final Aβ1–42 concentration – 12.58 μM
T4 sequence (P05067 672-713 limits assumed): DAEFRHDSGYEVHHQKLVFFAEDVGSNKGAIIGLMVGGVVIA
Description: Aβ1–42 aggregation assay, Thioflavin T fluorescence. Type of data set: biochemical. Conditions: Aβ1–42 12.58 μM, 24 h. The protocol:
The Aβ1–42 aggregation assay was established using the Thioflavin T fluorescence method[22] ^, [26] ^, [27]. Experiment was performed by incubating the peptides previously dissolved in DMSO at room temperature for 24 h (final Aβ1–42 concentration – 12.58 μM) with or without the tested compounds at the different concentrations (5, 10, 25, 50, and100 μM). After incubation all samples were diluted in PBS – phosphate buffer (pH 7.4) containing Thioflavin T (5 μM). Subsequently, after 5 min incubation with the dye, fluorescence signal was measured (excitation wavelength 446 nm, emission wavelength 490 nm) on a monochromator based multimode microplate reader (Synergy H1, Bio-Tek, Winooski, VT), adapted for 96-well microtiter plates. Next the percent of inhibition on aggregation was calculated by the following expression: 100 – (IFi/IFo × 100). IFi and IFo were the fluorescence intensities obtained for absorbance in the presence and absence of inhibitors, respectively. The background values were deducted in the calculations.

In another data set the target is T5, EeAChE (Electrophorus electricus, UniProt O42275).
T5 construct: purchased Sigma Aldrich (Steinheim, Germany)
T5 sequence (O42275 24-633): as the sequence (O42275 24-633) above
It counts as biochemical. Particulars: for Vmax: AChE. As for the experimental part:
The kinetic characterisation was evaluated according to the Ellman’s method[4] ^, [25]. […]. The tested medium contained: DTNB solution (0.4 mg/ml), AChE solution (2 U/ml), solution of the examined compound and different concentrations of the substrate ACT iodide in a total volume of […]. Absorbance were detected at 412 nm at room temperature after 6 min. Received date were calculated and presented on the Lineweaver–Burk plot. Determinated the KM and Vmax values were used to define the type of enzyme inhibition.

In data set [4] the test system is ATCC CCL-185 cell line (Epithelial cells from human lungs, carcinoma). Description: MTT cytotoxicity assay on ATCC CCL-185 cells. It counts as cell-based. Conditions: 22.22 µM; 48 h. The protocol: (§1) In the experiment, ATCC CCL-185 cell line was used (Epithelial cells from human lungs, carcinoma). Cells were seeded on 96-wells plate (F12 Thermo Fisher medium, Waltham MA) and incubated for 24 h. Then the cells were treated with various concentrations (0.22, 1.11, 2.22, 22.22, and 222.20 µM) of the tested compound dissolved in methanol and incubated for 48 h. Final methanol concentration in each well was 1 µl per 100 µl of medium. As a control, the same medium as for cells breeding was used with addition of 1 µl methanol and without studied compound. As a positive control pure methanol was used. After the time of incubation, procedure was carried out according to Vybrant MTT Cell Proliferation Assay Kit: cells were labelled with 10 µl of the 12 mM MTT stock solution, incubated at 37 °C for 4 h, all medium but 25 µl was removed from the wells, 50 µl of DMSO was added, incubated for 10 min at 37 °C and the absorbance at 540 nm was measured.
On the technique in general: Tetrazolium dyes change colour on reduction, which living cells bring about.

Data set [5] can be described thus: MTT cytotoxicity assay on ATCC CCL-185 cells. It counts as cell-based, human. Particulars: human, ATCC CCL-185 cells (human lung carcinoma epithelial cells), control as 100%, read-out: cell viability. As for the experimental part:
as §1

A further data set deals with T6, EqBuChE (Equus caballus, UniProt P81908).
T6 construct: BuChE (EC 3.1.1.8, from equin serum); purchased Sigma Aldrich (Steinheim, Germany); host or cells: equine serum
T6 sequence (P81908 whole entry): as the sequence (P81908 whole entry) above
Description: Kinetic characterisation of BuChE inhibition (Lineweaver–Burk). Type of data set: biochemical. Particulars: for Vmax: BuChE. The protocol: Kinetic analysis was performed using Ellman’s test[4] ^, [25]. […]. Total volume of tested medium (140 µl) comprised: DTNB solution (0.4 mg/ml), BuChE solution (4 U/ml), solution of the examined compound and different concentrations of the substrate ATC iodide. Absorbance was detected at 412 nm at room temperature after 8 min. Results were calculated and presented on the Lineweaver–Burk plot. Received KM and Vmax values allowed to define the type of enzyme inhibition.

[6] abbreviates: means ± SEM of three independent experiments, electric eel AChE, read-out: AChE IC50 ± SEM.

On to `Cl.O=C(NCCNc1c2c(nc3ccccc13)CCC2)c1cnc(Cl)c(Cl)c1` [3a, 5,6-Dichloro-N-[2-(2,3-dihydro-1H-cyclopenta[b]quinolin-9-ylamino)-ethyl]-nicotinamide hydrochloride], for which the “Selectivity for BuChE” value in data set [1] (IC50(AChE)/IC50(BuChE)) is 0.035. The IC50 in data set [1] stood at 1860 ± 83 nM; in data set [2] (setting [6]), 65 ± 7 nM. Further, the “Selectivity for AChE” value in data set [2] was 28.593.
In the same order, the values of `Cl.O=C(NCCCCCCCCNc1c2c(nc3ccccc13)CCC2)c1cnc(Cl)c(Cl)c1` [3g, 5,6-Dichloro-N-[8-(2,3-dihydro-1H-cyclopenta[b]quinolin-9-ylamino)-octyl]-nicotinamide hydrochloride] are 1.407, 108 ± 6 nM, 152 ± 45 nM and 0.711.
In the same order, the values of `Cl.O=C(NCCCCCCNc1c2c(nc3ccccc13)CCC2)c1cnc(Cl)c(Cl)c1` [3e, 5,6-Dichloro-N-[6-(2,3-dihydro-1H-cyclopenta[b]quinolin-9-ylamino)-hexyl]-nicotinamide hydrochloride] are 0.420, 127 ± 14 nM, 53 ± 5 nM and 2.380.
For the molecule Heparin, the IC50 in data set [3] was found to be 56.4 ± 0.78 µM.
`Cl.O=C(NCCCCCCCNc1c2c(nc3ccccc13)CCC2)c1cnc(Cl)c(Cl)c1` [3f, 5,6-Dichloro-N-[7-(2,3-dihydro-1H-cyclopenta[b]quinolin-9-ylamino)-heptyl]-nicotinamide hydrochloride]: the “Selectivity for BuChE” value in data set [1] (IC50(AChE)/IC50(BuChE)) came to 1.756. Also, in data set [1], the “BuChE inhibitory activity, fold higher than donepezil” value is 167 fold and the IC50 amounted to 71 ± 12 nM. In data set [2], the “Selectivity for AChE” value is 0.569. For the same molecule, in data set [2] (setting [6]), the IC50 is 125 ± 21 nM.
For the molecule `Cl.O=C(NCCCCNc1c2c(nc3ccccc13)CCC2)c1cnc(Cl)c(Cl)c1` [3c, 5,6-Dichloro-N-[4-(2,3-dihydro-1H-cyclopenta[b]quinolin-9-ylamino)-butyl]-nicotinamide hydrochloride], the “Selectivity for BuChE” value in data set [1] (IC50(AChE)/IC50(BuChE)) came out at 0.934. For the same molecule, the results for the IC50 in data set [1] and in data set [2] (setting [6]) were 797 ± 86 nM and 744 ± 46 nM, respectively. Also, in data set [2], the “Selectivity for AChE” value is 1.071.
As for `Cl.O=C(NCCCNc1c2c(nc3ccccc13)CCC2)c1cnc(Cl)c(Cl)c1` [3b, 5,6-Dichloro-N-[3-(2,3-dihydro-1H-cyclopenta[b]quinolin-9-ylamino)-propyl]-nicotinamide hydrochloride], the “Selectivity for BuChE” value in data set [1] turned out to be 0.330. The “BuChE inhibitory activity, fold higher than donepezil” value in data set [1] is reported as 75 fold. In addition, the IC50 in data set [1] turned out to be 158 ± 29 nM; in data set [2], 52 ± 2 nM. Also, the “Aβ aggregation (%)” value on Aβ1–42 (3b 5 µM) is given as 74.31%; on Aβ1–42 (3b 10 µM), 74.23%; on Aβ1–42 (3b 25 µM), 51.82%; at Aβ1–42 (3b 50 µM), 45.70%; on Aβ1–42 (3b 100 µM), 7.22%. In addition, the “Inhibition of Aβ aggregation (%)” value at Aβ1–42 (3b 5 µM) was 25.7% and 25.69%; on Aβ1–42 (3b 10 µM), 25.77%; at Aβ1–42 (3b 25 µM), 48.18%; at Aβ1–42 (3b 50 µM) it was 54.30%; on Aβ1–42 (3b 100 µM), 92.8% and 92.78%. The Vmax at EeAChE (inhibitor 3b 0.11 µM) amounted to 312.50 A/min; on EeAChE (inhibitor 3b 1.11 µM), 1666.67 A/min; at EqBuChE (inhibitor 3b 0.22 µM), 3333.3 A/min; on EqBuChE (inhibitor 3b 0.56 µM), 1666.7 A/min. In addition, on EeAChE (Lineweaver–Burk plot), the “type of EeAChE inhibition” value is “mixed type of inhibition”. In addition, the cell viability result in data set [4] was “suddenly decreased”. Besides, the viability at 48 h, 222.2 µM in data set [5] (222.20 µM) was around 7%. Besides, the viability at 48 h in data set [5] (concentrations from 0.22 to 2.22 µM) is around 70%. Also, the “Selectivity for AChE” value in data set [2] was 3.030. Also, the “AChE inhibitory potency, times higher than donepezil” value in data set [2] (in comparison to donepezil) is around 2 times. Moreover, the “type of EqBuChE inhibition” value at EqBuChE (Lineweaver–Burk plot) is reported as “mixed type of inhibition”.
In the case of `Cl.O=C(NCCCCCNc1c2c(nc3ccccc13)CCC2)c1cnc(Cl)c(Cl)c1` [3d, 5,6-Dichloro-N-[5-(2,3-dihydro-1H-cyclopenta[b]quinolin-9-ylamino)-pentyl]-nicotinamide hydrochloride], the “Selectivity for BuChE” value in data set [1] (IC50(AChE)/IC50(BuChE)) stood at 0.619. Further, the IC50 in data set [1] stood at 460 ± 38 nM; in data set [2] (setting [6]) it was 285 ± 38 nM. For the same molecule, the “Selectivity for AChE” value in data set [2] was found to be 1.615.
For `Cl.O=C(NCCCCCCCCCNc1c2c(nc3ccccc13)CCC2)c1cnc(Cl)c(Cl)c1` [3h, 5,6-Dichloro-N-[9-(2,3-dihydro-1H-cyclopenta[b]quinolin-9-ylamino)-nonyl]-nicotinamide hydrochloride], in that order: 1.889, 82 ± 30 nM, 155 ± 45 nM and 0.529.
